Literature values in patent US20040247626A1, “Stable aqueous dispersion of 1, 2-benzisothiazoline-3-one (bit)” (priority 2004, published 2004).

solubility in water: sparingly soluble
Compound: O=c1[nH]sc2ccccc12 [BIT, 1,2-benzisothiazolin-3-one]
